Activity calls are given as the source filed them. The calls are words filed in the database; no cut-off is given here.
Key:
[1] = molecular target: T1, Acetylcholinesterase (Mus musculus) (UniProt P21836); conditions: Brain, at 1 µM
T1 sequence (whole entry): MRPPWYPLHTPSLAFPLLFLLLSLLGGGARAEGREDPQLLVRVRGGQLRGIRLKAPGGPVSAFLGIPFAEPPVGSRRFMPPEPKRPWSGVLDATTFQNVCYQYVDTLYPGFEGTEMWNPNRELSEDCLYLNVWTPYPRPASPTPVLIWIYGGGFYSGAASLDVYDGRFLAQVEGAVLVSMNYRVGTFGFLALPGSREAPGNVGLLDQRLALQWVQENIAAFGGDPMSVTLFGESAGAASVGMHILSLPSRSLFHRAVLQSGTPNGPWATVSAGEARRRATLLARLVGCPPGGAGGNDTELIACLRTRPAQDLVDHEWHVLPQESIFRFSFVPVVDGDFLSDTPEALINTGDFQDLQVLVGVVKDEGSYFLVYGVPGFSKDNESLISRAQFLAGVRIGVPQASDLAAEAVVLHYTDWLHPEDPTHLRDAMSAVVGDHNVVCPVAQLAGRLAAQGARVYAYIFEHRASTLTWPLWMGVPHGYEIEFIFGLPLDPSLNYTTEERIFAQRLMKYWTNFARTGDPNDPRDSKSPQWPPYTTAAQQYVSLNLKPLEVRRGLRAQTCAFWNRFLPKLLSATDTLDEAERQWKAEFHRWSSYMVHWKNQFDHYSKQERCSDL

Mus musculus [2] = assay: Cognition enhancing effect in albino mouse assessed as reversal of scopolamine-induced memory deficit by measuring reduction in number of mistake at 0.5 mg/kg, ip treated 5 mins post scopolamine challenge by step down passive avoidance test; assay type: functional, organism-based
[3] = molecular target: T1, Acetylcholinesterase (Mus musculus); conditions: Brain, at 5 µM
[4] = molecular target: T1, Acetylcholinesterase (Mus musculus); conditions: Brain, at 10 µM
Mus musculus [5] = assay: Cognition enhancing effect in albino mouse assessed as reversal of scopolamine-induced memory deficit by measuring basal latency time at 0.5 mg/kg, ip treated 5 mins post scopolamine challenge by step down passive avoidance test (reference value: 63.93 +/- 2.6 sec); assay type: functional
[6] = molecular target: T1, Acetylcholinesterase (Mus musculus); conditions: Brain, at 50 µM
Mus musculus [7] = assay: Cognition enhancing effect in albino mouse assessed as reversal of scopolamine-induced memory deficit by measuring latency time at 0.5 mg/kg, ip treated 5 mins post scopolamine challenge by step down passive avoidance test (reference value: 68.16 +/- 0.4 sec); assay type: functional
[8] = molecular target: T1, Acetylcholinesterase (Mus musculus); conditions: Brain, at 25 µM
Acetylcholinesterase = molecular target: T2, Acetylcholinesterase (Mus musculus, UniProt P21836); design: species or system LACA
T2 sequence (P21836 whole entry): T1 sequence (whole entry)

[9] = molecular target: T1, Acetylcholinesterase (Mus musculus); assay: Inhibition of AchE in albino LACA mouse brain at 10^-3 M using acetylthiocholine iodide as substrate incubated for 10 mins measured for 2 mins by Ellman's method relative to control

Compound	inhibition [1]	Activity (Mus musculus [2])	inhibition [3]	inhibition [4]	Time (Mus musculus [5])	inhibition [6]	Time (Mus musculus [7])	inhibition [8]	IC50 (Acetylcholinesterase)	inhibition [9]
COc1ccc(C(=O)Oc2cccc(/C=C3\Cc4ccccc4C3=O)c2)cc1	30.6%	Active	32.2%	33.9%	14.82 s	48.4%	7.11 s	41.9%	38.9 µM	–
COc1cc2c(cc1OC)C(=O)C(CC1CCN(CC(=O)Nc3ccc([N+](=O)[O-])cc3)CC1)C2 (stereo not given)	–	–	–	–	–	–	–	–	–	8.67%
COc1cc2c(cc1OC)C(=O)C(CC1CCN(CC(=O)Cc3nc4ccc([N+](=O)[O-])cc4s3)CC1)C2 (stereo not given)	–	–	–	–	–	–	–	–	–	5.9%
COc1cc2c(cc1OC)C(=O)C(CC1CCN(CC(=O)Nc3ccc(C)cc3)CC1)C2 (stereo not given)	–	–	–	–	–	–	–	–	–	13.9%
O=C(Oc1cccc(/C=C2\Cc3ccccc3C2=O)c1)c1ccc(F)cc1	33.9%	Active	35.5%	38.7%	22.06 s	54.8%	9.9 s	51.6%	40.6 µM	–
COc1ccc(NC(=O)CN2CCC(CC3Cc4cc(OC)c(OC)cc4C3=O)CC2)cc1OC (stereo not given)	–	–	–	–	–	–	–	–	–	7.33%
COc1ccc(NC(=O)CN2CCC(CC3Cc4cc(OC)c(OC)cc4C3=O)CC2)cc1 (stereo not given)	–	–	–	–	–	–	–	–	–	12.8%
O=C(Oc1cccc(/C=C2\Cc3ccccc3C2=O)c1)c1cccc(OC(F)(F)F)c1	73.6%	Active	72.1%	64.6%	27.67 s	78.2%	12.01 s	91.7%	12.3 µM	–
O=C(Oc1cccc(/C=C2\Cc3ccccc3C2=O)c1)c1cc(Cl)cc(Cl)c1	37%	Active	41.9%	33.9%	19.86 s	51.6%	12.65 s	43.5%	43.3 µM	–
O=C(Oc1cccc(/C=C2\Cc3ccccc3C2=O)c1)c1ccc([N+](=O)[O-])cc1	72.1%	Active	68.3%	65.3%	14.23 s	51%	7.98 s	60.8%	48.8 µM	–
COc1cc2c(cc1OC)C(=O)C(CC1CCN(CC(=O)Cc3nc4ccc(C)cc4s3)CC1)C2 (stereo not given)	–	–	–	–	–	–	–	–	–	5.82%
COc1ccc2nc(CC(=O)CN3CCC(CC4Cc5cc(OC)c(OC)cc5C4=O)CC3)sc2c1 (stereo not given)	–	–	–	–	–	–	–	–	–	3.72%
COc1cc2c(cc1OC)C(=O)C(CC1CCN(CC(=O)Cc3nc4cc(OC)c(OC)cc4s3)CC1)C2 (stereo not given)	–	–	–	–	–	–	–	–	–	3.2%
O=C(Oc1cccc(/C=C2\Cc3ccccc3C2=O)c1)c1cccc(CCl)c1	75.9%	Active	70.6%	56.3%	20.86 s	59.3%	11.65 s	72.9%	27.1 µM	–
COc1cc(C(=O)Oc2cccc(/C=C3\Cc4ccccc4C3=O)c2)cc(OC)c1OC	69.1%	Active	32.2%	72.1%	13.81 s	32.9%	6.08 s	78.9%	14.1 µM	–
COc1cc2c(cc1OC)C(=O)C(CC1CCN(Cc3ccccc3)CC1)C2 (stereo not given) [DONEPEZIL]	–	Active	–	–	17.67 s	–	11.52 s	–	–	–
COc1cc2c(cc1OC)C(=O)C(CC1CCN(CC(=O)Cc3nc4ccccc4s3)CC1)C2 (stereo not given)	–	–	–	–	–	–	–	–	–	4.62%
COc1cc2c(cc1OC)C(=O)C(CC1CCN(CC(=O)Cc3nc4ccc(F)cc4s3)CC1)C2 (stereo not given)	–	–	–	–	–	–	–	–	–	1.24%
COc1cc2c(cc1OC)C(=O)C(CC1CCN(CC(=O)Nc3ccc(Cl)cc3)CC1)C2 (stereo not given)	–	–	–	–	–	–	–	–	–	2.74%
O=C(Oc1cccc(/C=C2\Cc3ccccc3C2=O)c1)c1ccccc1F	80.4%	Active	48.8%	40.5%	13.72 s	32.9%	5.9 s	35.2%	14.1 µM	–
COc1cc2c(cc1OC)C(=O)C(CC1CCN(CC(=O)Nc3ccc(F)cc3)CC1)C2 (stereo not given)	–	–	–	–	–	–	–	–	–	6.19%
COc1cc2c(cc1OC)C(=O)C(CC1CCN(CC(=O)Cc3nc4ccc(Cl)cc4s3)CC1)C2 (stereo not given)	–	–	–	–	–	–	–	–	–	2.13%
O=C(Oc1cccc(/C=C2\Cc3ccccc3C2=O)c1)c1cc(C(F)(F)F)cc(C(F)(F)F)c1	38.7%	Active	46.8%	53.2%	12.63 s	67.7%	6.98 s	59.7%	12 µM	–
O=C(Oc1cccc(/C=C2\Cc3ccccc3C2=O)c1)c1ccccc1	30.6%	Active	27.4%	37.1%	16.01 s	67.7%	10.01 s	48.4%	34.3 µM	–
O=C(Oc1cccc(/C=C2\Cc3ccccc3C2=O)c1)c1ccc(CCl)cc1	67.6%	Active	66.1%	65.3%	14.82 s	53.3%	8.11 s	56.3%	79.7 µM	–

— ChEMBL document CHEMBL4177716, “Design, synthesis and pharmacological evaluation of some novel indanone derivatives as acetylcholinesterase inhibitors for the management of cognitive dysfunction” (Bioorg Med Chem, 2018)
